Tests used:
pyk2 = pyk2 (Homo sapiens, UniProt Q14289); experiment: bio pyk2 assay; format: biochemical
EGFR = EGFR (Homo sapiens, UniProt P00533); experiment: Biochemical EGFR assay (ELISA, A431 cell lysate); set-up: A431 cell lysate (Screening Lab, SUGEN, Inc.); host or cells: A431; conditions: read-out: bio EGFr IC50
Procedure, shortened: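 EGFR captured from A431 cell lysate onto anti-EGFR-coated plates, then incubated with test compound for 30 min at room temperature. Tyrosine phosphorylation with ATP/MnCl2 was stopped with EDTA after 5 min and detected by anti-phosphotyrosine ELISA with peroxidase/ABTS read-out.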

src protein kinase = molecular target: T1, src protein kinase (Gallus gallus, UniProt P00523); experiment: Biochemical SRC assay (phosphorylation of biotinylated peptide); conditions: read-out: bio src IC50
T1 construct: host or cells: Schizosaccharomyces pombe SP200

pyk2, sequence (Q14289 whole entry, species assumed): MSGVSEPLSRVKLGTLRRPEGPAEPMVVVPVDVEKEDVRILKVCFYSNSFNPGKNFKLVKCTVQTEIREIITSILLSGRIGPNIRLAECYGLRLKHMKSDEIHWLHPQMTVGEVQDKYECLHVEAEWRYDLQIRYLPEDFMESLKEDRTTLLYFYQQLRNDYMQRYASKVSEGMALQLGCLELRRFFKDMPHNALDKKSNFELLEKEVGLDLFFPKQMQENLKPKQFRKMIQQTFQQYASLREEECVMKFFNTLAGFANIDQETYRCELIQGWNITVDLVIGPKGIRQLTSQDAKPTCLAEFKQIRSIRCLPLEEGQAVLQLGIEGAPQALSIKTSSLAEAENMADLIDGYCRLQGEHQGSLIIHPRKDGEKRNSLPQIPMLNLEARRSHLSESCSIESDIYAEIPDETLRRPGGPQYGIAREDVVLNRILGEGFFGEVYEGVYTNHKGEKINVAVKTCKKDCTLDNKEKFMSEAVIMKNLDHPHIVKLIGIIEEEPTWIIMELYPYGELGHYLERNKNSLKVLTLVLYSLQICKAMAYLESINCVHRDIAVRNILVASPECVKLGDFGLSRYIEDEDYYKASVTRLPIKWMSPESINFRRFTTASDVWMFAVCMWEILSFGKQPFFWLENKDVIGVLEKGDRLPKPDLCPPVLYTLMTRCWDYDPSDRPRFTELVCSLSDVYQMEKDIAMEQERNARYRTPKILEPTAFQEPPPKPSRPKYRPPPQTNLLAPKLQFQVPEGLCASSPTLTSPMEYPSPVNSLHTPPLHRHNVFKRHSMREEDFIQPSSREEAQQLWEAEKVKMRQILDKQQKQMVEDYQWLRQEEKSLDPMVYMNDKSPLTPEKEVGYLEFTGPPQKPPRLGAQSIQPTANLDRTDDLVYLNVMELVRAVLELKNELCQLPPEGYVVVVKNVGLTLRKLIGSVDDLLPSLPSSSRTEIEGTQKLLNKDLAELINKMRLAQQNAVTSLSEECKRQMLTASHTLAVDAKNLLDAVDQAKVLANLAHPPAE
EGFR, sequence (P00533 25-1210): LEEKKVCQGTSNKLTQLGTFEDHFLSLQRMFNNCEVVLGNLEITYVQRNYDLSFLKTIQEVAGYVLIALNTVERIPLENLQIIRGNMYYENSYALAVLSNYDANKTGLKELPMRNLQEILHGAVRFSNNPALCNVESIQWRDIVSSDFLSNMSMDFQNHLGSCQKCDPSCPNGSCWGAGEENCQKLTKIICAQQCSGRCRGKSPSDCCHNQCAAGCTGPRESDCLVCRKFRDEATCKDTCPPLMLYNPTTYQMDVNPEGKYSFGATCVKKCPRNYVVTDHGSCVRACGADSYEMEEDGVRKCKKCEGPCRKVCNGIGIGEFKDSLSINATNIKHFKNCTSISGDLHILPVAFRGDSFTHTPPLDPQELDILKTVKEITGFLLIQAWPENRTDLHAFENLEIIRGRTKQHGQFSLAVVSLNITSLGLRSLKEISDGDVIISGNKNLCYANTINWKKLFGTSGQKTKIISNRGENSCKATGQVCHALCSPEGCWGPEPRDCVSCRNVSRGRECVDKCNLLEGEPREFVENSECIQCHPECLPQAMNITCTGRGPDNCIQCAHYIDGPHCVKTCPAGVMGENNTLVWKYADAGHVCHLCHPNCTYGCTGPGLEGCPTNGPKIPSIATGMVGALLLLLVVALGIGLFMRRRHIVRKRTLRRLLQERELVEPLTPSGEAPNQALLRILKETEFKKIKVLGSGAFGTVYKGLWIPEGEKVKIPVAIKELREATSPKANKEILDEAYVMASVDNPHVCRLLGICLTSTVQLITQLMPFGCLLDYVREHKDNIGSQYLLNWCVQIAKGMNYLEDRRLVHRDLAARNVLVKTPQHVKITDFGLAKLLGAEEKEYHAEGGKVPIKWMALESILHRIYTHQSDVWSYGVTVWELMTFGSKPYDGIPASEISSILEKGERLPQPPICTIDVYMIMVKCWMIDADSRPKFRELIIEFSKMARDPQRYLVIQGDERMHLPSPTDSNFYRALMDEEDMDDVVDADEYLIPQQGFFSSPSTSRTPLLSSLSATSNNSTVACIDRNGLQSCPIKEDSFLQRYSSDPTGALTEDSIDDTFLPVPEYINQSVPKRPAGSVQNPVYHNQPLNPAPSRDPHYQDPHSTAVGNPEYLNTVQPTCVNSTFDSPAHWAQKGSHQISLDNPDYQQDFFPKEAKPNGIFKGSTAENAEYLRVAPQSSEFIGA

Row | Compound | IC50 (pyk2) [µM] | IC50 (EGFR) [µM] | IC50 (src protein kinase) [nM]
1 | CNS(=O)(=O)c1ccc2c(c1)/C(=C/c1cc3ccccc3[nH]1)C(=O)N2 [Example 173, 3-(1H-Indol-2-ylmethylene)-2-oxo-2,3-dihydro-1H-indole-5-sulfonic acid methylamide] | 9.8 | 22 | –
2 | Nc1ccc2c(c1)/C(=C/c1ccc3[nH]ccc3c1)C(=O)N2 [Example 179, 5-Amino-3-(1H-indol-5-ylmethylene)-1,3-dihydro-indol-2-one] | > 100 | > 100 | –
3 | Cc1[nH]c2ccccc2c1/C=C1\C(=O)Nc2ccc(N)cc21 [Example 187, 5-Amino-3-(2-methyl-1H-indol-3-ylmethylene)-1,3-dihydroindol-2-one] | 75.8 | > 100 | –
4 | CCOc1cccc(-c2ccc3c(c2)NC(=O)/C3=C\c2[nH]cc(C)c2CCC(=O)O)c1 [Example 224, 3-{2-[6-(3-Ethoxyphenyl)-2-oxo-1,2-dihydro-indol-3-ylidenemethyl]-4-methyl-1H-pyrrol-3-yl}-propionic acid] | – | – | 1160
5 | NS(=O)(=O)c1ccc2c(c1)/C(=C/c1c[nH]c3ccccc13)C(=O)N2 [Example 172, 3-(1H-Indol-3-ylmethylene)-2-oxo-2,3-dihydro-1H-indole-5-sulfonic acid amide] | 14.8 | > 100 | –
6 | O=C(O)CCc1c(/C=C2\C(=O)Nc3cc(-c4ccccc4)ccc32)[nH]c2c1CCCC2 [Example 206, 3-[2-(2-oxo-6-phenyl-1,2-dihydroindol-3-ylidenemethyl)-4,5,6,7-tetrahydro-1H-indol-3-yl]-propionic acid] | – | – | 740
7 | COc1c(C(C)C)cc(/C=C2/C(=O)Nc3ccccc32)cc1C(C)C [Example 1, 3-(3,5-Diisopropyl-4-methoxybenzylidene)-1,3-dihydroindol-2-one] | – | > 100 | –
8 | O=C(O)CCc1c(/C=C2\C(=O)Nc3ncccc32)[nH]c2c1CCCC2 [Example 203, 3-[2-(2-Oxo-1,2-dihydropyrrolo[2,3-b]pyridin-3-ylidenemethyl)-4,5,6,7-tetrahydro-1H-indol-3-yl]-propionic acid] | – | > 12.5 | –
9 | COc1c(C(C)C)cc(/C=C2/C(=O)Nc3ccc(Cl)cc32)cc1C(C)C [Example 2, 5-Chloro-3-(3,5-diisopropyl-4-methoxybenzylidene)-1,3-dihydroindol-2-one] | – | > 100 | –
10 | O=C1Nc2ccc(N=Cc3cc4ccccc4[nH]3)cc2C1=Cc1cc2ccccc2[nH]1 [Example 171, 3-(1H-indol-2-ylmethylene)-5-[(1H-indol-2-ylmethylene)-amino]-1,3-dihydroindol-2-one] | – | > 100 | –

Further lines, with some results ahead:

Row | IC50 (pyk2) [µM] | IC50 (EGFR) [µM] | Compound | IC50 (src protein kinase) [nM]
11 | 37.1 | > 100 | Cc1[nH]c2ccccc2c1/C=C1\C(=O)Nc2ccc(C(=O)O)cc21 [Example 182, 3-(2-Methyl-1H-indol-3-ylmethylene)-2-oxo-2,3-dihydro-1H-indole-5-carboxylic acid] | –
12 | – | > 100 | CCOC(=O)c1c(C)[nH]c(/C=C2\C(=O)Nc3ccc(Br)cc32)c1CCC(=O)O [Compound 114, 5-(5-Bromo-2-oxo-1,2-dihydroindol-3-ylidenemethyl)-4-(2-carboxyethyl)-2-methyl-1H-pyrrole-3-carboxylic acid ethyl ester] | –
13 | > 100 | 6.13 | O=C1Nc2ccc(C(=O)O)cc2/C1=C/c1ccc2[nH]ccc2c1 [Example 177, 3-(1H-Indol-5-ylmethylene)-2-oxo-2,3-dihydro-1H-indole-5-carboxylic acid] | –
14 | < 0.78 | > 100 | Cc1c(/C=C2\C(=O)Nc3ccc(N)cc32)[nH]c2ccccc12 [Example 180, 5-Amino-3-(3-methyl-1H-indol-2-ylmethylene)-1,3-dihydroindol-2-one] | –
15 | 2.57 | > 100 | O=C1Nc2ccc(C(=O)O)cc2/C1=C/c1c[nH]c2ccccc12 [Example 174, 3-(1H-Indol-3-ylmethylene)-2-oxo-2,3-dihydro-1H-indole-5-carboxylic acid] | –
16 | – | > 100 | Cc1cc(CCC(=O)O)c(/C=C2\C(=O)Nc3ccc(Br)cc32)[nH]1 [Compound 116, 3-[2-(5-Bromo-2-oxo-1,2-dihydroindol-3-ylidenemethyl)-5-methyl-1H-pyrrol-3-yl]-propionic acid] | –

Source: patent publication US6855730B2, “3-methylidenyl-2-indolinone modulators of protein kinase” (Sugen, Inc., priority 1998, dated 2005)
